In the NIST ThermoML archive (doi:10.1021/acs.jced.5b00259):

Assay: xn = mol fraction of the nth substance listed
Conditions: 100 kPa, Liquid

CC[NH+]=C(N(C)C)N(C)C.O=S(=O)([N-]S(=O)(=O)C(F)(F)F)C(F)(F)F + CCCO
Conditions	mass density [kg/m3]	viscosity [mPa·s]
293.15 K, x1 = 0.1024	997.39	4.462
293.15 K, x1 = 0.2019	1114.71	7.27
293.15 K, x1 = 0.2973	1192.09	10.87
293.15 K, x1 = 0.4011	1252.75	16.1
293.15 K, x1 = 0.4988	1295.36	21.63
293.15 K, x1 = 0.5962	1328.36	28.19
293.15 K, x1 = 0.6997	1356.59	36.71
293.15 K, x1 = 0.7931	1377.81	45.87
293.15 K, x1 = 0.9014	1398.72	58.37
293.15 K, x1 = 1	1414.89	74.61
298.15 K, x1 = 0.1024	992.96	3.868
298.15 K, x1 = 0.2019	1110.07	6.213
298.15 K, x1 = 0.2973	1187.4	9.224
298.15 K, x1 = 0.4011	1247.97	13.49
298.15 K, x1 = 0.4988	1290.53	18.01
298.15 K, x1 = 0.5962	1323.53	23.23
298.15 K, x1 = 0.6997	1351.73	29.87
298.15 K, x1 = 0.7931	1372.97	37.15
298.15 K, x1 = 0.9014	1393.86	46.91
298.15 K, x1 = 1	1410.03	58.86
303.15 K, x1 = 0.1024	988.5	3.38
303.15 K, x1 = 0.2019	1105.48	5.362
303.15 K, x1 = 0.2973	1182.67	7.898
303.15 K, x1 = 0.4011	1243.16	11.48
303.15 K, x1 = 0.4988	1285.7	15.21
303.15 K, x1 = 0.5962	1318.7	19.43
303.15 K, x1 = 0.6997	1346.89	24.76
303.15 K, x1 = 0.7931	1368.14	30.48
303.15 K, x1 = 0.9014	1389.02	38.17
303.15 K, x1 = 1	1405.19	47.27
308.15 K, x1 = 0.1024	984.03	2.972
308.15 K, x1 = 0.2019	1100.81	4.667
308.15 K, x1 = 0.2973	1177.93	6.831
308.15 K, x1 = 0.4011	1238.35	9.85
308.15 K, x1 = 0.4988	1280.88	12.98
308.15 K, x1 = 0.5962	1313.87	16.47
308.15 K, x1 = 0.6997	1342.09	20.85
308.15 K, x1 = 0.7931	1363.32	25.37
308.15 K, x1 = 0.9014	1384.21	31.53
308.15 K, x1 = 1	1400.38	38.71
313.15 K, x1 = 0.1024	979.55	2.63
313.15 K, x1 = 0.2019	1096.13	4.093
313.15 K, x1 = 0.2973	1173.18	5.966
313.15 K, x1 = 0.4011	1233.59	8.525
313.15 K, x1 = 0.4988	1276.07	11.21
313.15 K, x1 = 0.5962	1309.06	14.12
313.15 K, x1 = 0.6997	1337.29	17.73
313.15 K, x1 = 0.7931	1358.51	21.42
313.15 K, x1 = 0.9014	1379.42	26.43
313.15 K, x1 = 1	1395.59	32.2
318.15 K, x1 = 0.1024	975.03	2.34
318.15 K, x1 = 0.2019	1091.46	3.684
318.15 K, x1 = 0.2973	1168.42	5.248
318.15 K, x1 = 0.4011	1228.78	7.433
318.15 K, x1 = 0.4988	1271.27	9.743
318.15 K, x1 = 0.5962	1304.24	12.24
318.15 K, x1 = 0.6997	1332.49	15.26
318.15 K, x1 = 0.7931	1353.72	18.28
318.15 K, x1 = 0.9014	1374.63	22.43
318.15 K, x1 = 1	1390.8	27.09
323.15 K, x1 = 0.1024	970.48	2.094
323.15 K, x1 = 0.2019	1086.71	3.283
323.15 K, x1 = 0.2973	1163.66	4.64
323.15 K, x1 = 0.4011	1223.97	6.437
323.15 K, x1 = 0.4988	1266.46	8.553
323.15 K, x1 = 0.5962	1299.4	10.7
323.15 K, x1 = 0.6997	1327.7	13.27
323.15 K, x1 = 0.7931	1348.94	15.77
323.15 K, x1 = 0.9014	1369.87	19.26
323.15 K, x1 = 1	1386.03	23.14
